From article PMC6713120, “Kinetic and thermodynamic characterisation of HIV-protease inhibitors against E35D↑G↑S mutant in the South African HIV-1 subtype C protease” (Journal of Enzyme Inhibition and Medicinal Chemistry, 2019)
“And” between values parts separate entries of the source, which are not always exact repeats. Equal values may be shown once.

Legend:
[1] = target: T1, E35D↑G↑S mutant HIV-1 subtype C protease (Human immunodeficiency virus type 1 group M subtype C, UniProt Q994Q3, D118E/E93D/I94G/INS93GS); conditions: mutant-wild type
Method: Quenching experiments were performed according to the method reported by Maseko et al.[15]. Spectrofluorimetry was used to determine structural changes induced in HIV protease by the interaction of the inhibitors with the purified enzymes using Jasco V-630 spectrofluorimeter (Jasco International co., LTD, Japan). The excitation wavelength was fixed at 295 nm, the wavelength at which tryptophan absorbs and the emission wavelength measured was at […]. The change in fluorescence of a solution was monitored over 10 min, as increasing concentrations of inhibitors were added to a reaction mixture of HIV protease in 50 mM sodium acetate, 1 M NaCl, pH 5 in a final volume of […]. All fluorescence quenching experiments were performed at 4 different temperatures (293 K, 298 K, 303 K, 310 K). The following equations are applicable. (1) F0/F=1+KsvQ (2) lnKsv=−(ΔH/RT)+(ΔS/R) where F0 and F are the florescence in the absence and presence of quencher, Ksv is the Stern Volmer constant, Q is the quencher (drug), ΔH is the enthalpy, ΔS is entropy, R is the gas constant and T is the experimental temperature. The equation is developed from Van’t Hoff relationship. (3) ΔG=RTlnKi
Thermodynamic parameters were calculated from the Stern Volmer and Van’t Hoff plots (Figures S3 and S4). From these plots, ΔH and ΔS values for each drug were calculated. ΔG values were calculated from the Ki values from Equation (3).

[2] = target: T1, E35D↑G↑S mutant HIV-1 subtype C protease; experiment: biochemical; conditions: for IC50: E35D↑G↑S IC50, mutant E35D↑G↑S, n = 3; for Ki ratio / reduced activity in comparison to the wildtype: mutant versus wild type; for ΔΔG: mutant-wild type; for log vitality: v = (Ki × Kcat/Km)MUT/(Ki × Kcat/Km)WT, wild type as reference; for ΔG (Gibbs free binding energy): calculated from Ki, ΔG=RTlnKi
Method: (§1) Enzymatic activity of the HIV-1 C-SA and mutant (E35D↑G↑S) protease was measured by following the hydrolysis of the HIV-PR chromogenic substrate, Lys-Ala-Arg-Val-Nle-nPhe-Glu-Ala-Nle-NH2 as reported before[13]^,[15]. The substrate resembles the conserved protease cleavage site, KARVL/AEAM[8] between the capsid protein and the […] in the Gag-polyprotein precursor. Hydrolysis of the HIV chromogenic substrate was characterised by the decrease in absorbance at 300 nm. Catalytic properties such as the Km, kcat, and kcat/Km of the proteases were determined. All catalytic activity assays were performed using a Jasco V-630 spectrophotometer (Jasco International co., LTD, Japan).
(§2) This was done by monitoring the rate of chromogenic substrate hydrolysis using 2 µM protease in 50.0 mM sodium acetate, 0.1 M NaCl, pH 5.0, and (0–250 µM) substrate in increasing amounts of inhibitor (0–10 nM).
This is done by introducing the term “vitality” which is a measure of resistance. Vitality, v, is defined as v = (Ki × Kcat/Km)MUT/(Ki × Kcat/Km)WT, and predicts the therapeutic effect of a given protease inhibitor.
(§3) The Ki values were estimated using a competitive inhibition equation (Equation 1) according to Williams et al..

[3] = target: wild type C-SA HIV protease (Human immunodeficiency virus type 1 group M subtype C, UniProt Q994Q3); experiment: Inhibition of chromogenic substrate hydrolysis by wild type C-SA HIV protease; type: biochemical, HIV-1 subtype C; conditions: for IC50: wild type C-SA protease, n = 3, read-out: WT IC50; for Ki / ΔG (Gibbs free binding energy): wild type; for Ki: 37 °C, pH 5.0; for ΔG (Gibbs free binding energy): calculated from Ki, ΔG=RTlnKi
Method: as §1, §2, §3

Row | SMILES | ΔΔH [1] | −TΔΔS [1] | IC50 [2] | Ki ratio [2] | ΔΔG [2] | log vitality [2] | IC50 [3] | Ki [2] | Ki [3] | ΔG (Gibbs free binding energy) [3] | ΔG (Gibbs free binding energy) ([2]; mutant E35D↑G↑S) | log Ki ([2]; mutant E35D↑G↑S, logarithm of Ki in nM, 37 °C, pH 5.0) | reduced activity in comparison to the wildtype [2]
1 | CC(C)(C)NC(=O)[C@@H]1C[C@@H]2CCCC[C@@H]2CN1C[C@@H](O)[C@H](Cc1ccccc1)NC(=O)[C@H](CC(N)=O)NC(=O)c1ccc2ccccc2n1 [SQV, Saquinavir] | 2.9 ± 0.1 | 0.4 ± 0.0 | 114 ± 1.2 nM | 215 ± 2.0 | 3.3 ± 0.5 kcal/mol | around two | 0.77 ± 0.05 nM | – | – | – | – | – | –
2 | Cc1c(O)cccc1C(=O)N[C@@H](CSc1ccccc1)[C@H](O)CN1C[C@H]2CCCC[C@H]2C[C@H]1C(=O)NC(C)(C)C [NFV, Nelfinavir] | 2.3 ± 0.0 | −1.8 ± 0.0 | 1401 ± 3 nM | 532 ± 2 | 4.1 ± 0.2 kcal/mol | around two | 1.99 ± 0.05 nM | 174 nM | – | – | – | – | –
3 | CCC[C@@]1(CCc2ccccc2)CC(O)=C([C@H](CC)c2cccc(NS(=O)(=O)c3ccc(C(F)(F)F)cn3)c2)C(=O)O1 [TPV, Tipranavir] | 3.2 ± 0.2 | −7.1 ± 0.1 | 203 ± 2.6 nM | 292 ± 4.0 | 3.7 ± 0.1 kcal/mol | around two | 1.55 ± 0.02 nM | – | 0.513 nM | -13.19 kcal/mol | – | – | –
4 | Cc1cccc(C)c1OCC(=O)N[C@@H](Cc1ccccc1)[C@@H](O)C[C@H](Cc1ccccc1)NC(=O)[C@H](C(C)C)N1CCCNC1=O [LPV, Lopinavir] | −13.1 ± 0.9 | 14.7 ± 0.1 | 51.7 ± 0.8 nM | 12 ± 0.1 | 1.6 ± 0.3 kcal/mol | ~1.00 | 2.99 ± 0.01 nM | – | – | – | – | – | –
5 | COC(=O)N[C@H](C(=O)N[C@@H](Cc1ccccc1)[C@@H](O)CN(Cc1ccc(-c2ccccn2)cc1)NC(=O)[C@@H](NC(=O)OC)C(C)(C)C)C(C)(C)C [ATV, Atazanavir] | 3.1 ± 0.1 | −1.5 ± 0.1 | 685 ± 3 nM | 1828 ± 2.0 | 4.6 ± 0.2 kcal/mol | highest vitality value | 1.07 ± 0.08 nM | 145 nM | 0.0776 nM | -14.35 kcal/mol | – | – | –
6 | CC(C)CN(C[C@@H](O)[C@H](Cc1ccccc1)NC(=O)O[C@H]1CO[C@H]2OCC[C@H]21)S(=O)(=O)c1ccc(N)cc1 [DRV, Darunavir] | 2.1 ± 0.0 | −1.8 ± 0.1 | 154 ± 2 nM | 560 ± 3.0 | 3.9 ± 0.5 kcal/mol | around two | 1.07 ± 0.04 nM | – | – | – | – | – | –
7 | CC(C)(C)NC(=O)[C@@H]1CN(Cc2cccnc2)CCN1C[C@@H](O)C[C@@H](Cc1ccccc1)C(=O)N[C@H]1c2ccccc2C[C@H]1O [IDV, Indinavir] | −0.1 ± 0.0 | 1.8 ± 0.3 | 33.6 ± 1 nM | 20 ± 0.5 | 1.9 ± 0.6 kcal/mol | ~1.00 | 3.44 ± 0.06 nM | – | – | – | – | – | –
8 | CC(C)CN(C[C@@H](O)[C@H](Cc1ccccc1)NC(=O)O[C@H]1CCOC1)S(=O)(=O)c1ccc(N)cc1 [APV, Amprenavir] | 12.9 ± 0.8 | 12.1 ± 0.2 | 4.1 ± 0.05 nM | 4 ± 0.1 | 0.80 kcal/mol and 0.80 ± 0.1 kcal/mol | 0.36 | 0.81 ± 0.04 nM | – | – | – | -13.12 kcal/mol | negative | 4 folds
9 | CC(C)c1nc(CN(C)C(=O)N[C@H](C(=O)N[C@@H](Cc2ccccc2)C[C@H](O)[C@H](Cc2ccccc2)NC(=O)OCc2cncs2)C(C)C)cs1 [RTV, Ritonavir] | 6.8 ± 0.1 | 5.8 ± 0.2 | – | – | 0.93 kcal/mol and 0.9 ± 0.1 kcal/mol | 0.30 | – | – | – | – | -12.96 kcal/mol | – | 5 folds
